Measurements as given in patent US20220249596A1, “PIC1 PEPTIDE COMPOSITIONS AND METHODS OF USE THEREOF FOR TREATMENT OF HYPOXIC ISCHEMIC ENCEPHALOPATHY” (REALTA HOLDINGS, LLC, priority 2019, published 2022).
No end group written: not given here.

Assays:
Type in all cases: in vivo, rat
C3a = test: Systemic C3a level in plasma, ELISA; conditions: 8, 12 and 24 hours after initial insult, P<0.05
Experimental: Systemic C1q and C5a levels were measured as follows. 100 μl of 1:5 plasma in 1×PBS was added to the wells of a plate described above and incubated overnight at 4° C. The plates were washed 3 times with PBST and blocked with NDS or NGS for one hour. Samples were probed with either 1:50 goat anti-human C1q (Complement Technology) in NDS or 1:200 mouse anti-human C5a (Human Complement Component C5a DuoSet ELISA, R&D Systems, Inc., Minneapolis, Minn.) in NGS for one hour at RT. The wells were washed and 1:500 donkey anti-goat 488 (Life Technologies) in NDS or 1:500 goat anti-mouse AF 568 (Life Technologies) in NGS was added, and incubated for one hour at RT. The wells were washed and the plate read using a Synergy HT (BioTek). Systemic C3a levels in plasma (1:20 dilution) were measured using a standard ELISA, according to the manufacturer's instructions (Rat C3a ELISA Kit, TSZ ELISA, Waltham, Mass.).

MPO (Myeloperoxidase) = test: Myeloperoxidase expression in cortex (oxidant stress); conditions: 48 hours after injury, versus NT animals, P<0.01
Experimental: (§1) After blocking for one hour at room temperature, tissues were incubated with 1:300 goat anti-Iba1 (Abcam), 1:250 goat anti-GFAP (Abcam), 1:500 chicken anti-NeuN (Millipore, Billerica, Mass.), or 1:100 mouse anti-NeuN (Millipore) in host appropriate blocking serum overnight at 4° C. Primary antibodies were probed with 1:500 donkey anti-goat (Abcam), goat anti-chicken (Abcam), or goat anti-mouse (Abcam) AF 488 or 568 in appropriate blocking serum for one hour at room temperature. Tissues were blocked a second time with NGS for one hour at room temperature. Samples were then probed with 1:300 mouse anti-C1q (Abcam), 1:300 rabbit anti-C9, 1:50 rabbit anti-MPO (Abcam), 1:200 rabbit anti-TMEM (Novus Bio, Centennial, Colo.), 1:100 rabbit anti-C3aR (Bioss), 1:100 Mouse anti-C5aR (Hycult), or 1:200 chicken anti-C3/C3a (Abcam) in NGS overnight at 4° C. and then with 1:500 goat anti-mouse, rabbit, or chicken (Abcam) AF 488 or 568 in NGS for one hour at room temperature.
To examine the effect of PIC1 treatment on oxidant stress, expression of the enzyme myeloperoxidase (MPO) was measured in the cortex of the brain. MPO is an enzyme from neutrophils that damages invading and host cells alike. MPO is one of the markers of oxidative stress after ischemic injury and is responsible for generating reactive oxygen species (hypochlorous acid and hydrogen peroxide). […]

C3aR = test: Whole brain C3aR expression, Western blotting and immunofluorescence; conditions: PIC1 group versus NT animals, P<0.05
Experimental: as §1
Without wishing to be bound by theory, C3a is generated at the convergence of all known complement activation pathways (i.e., the classical, alternate and lectin pathways). To investigate further, C3aR levels in the brain were measured by Western blotting and immunofluorescence (FIG. 5). Western blotting was performed as follows. […]

How did the “C3a levels in plasma, NT animals relative to PIC1-treated animals” value (C3a) turn out when “IALILEPICCQERAA-dPEG24 (cysteine pairing not given here) [PIC1]” was run?
Its value is “significantly higher”.

What about the “decrease of MPO expression in brain” value (MPO (Myeloperoxidase)) of the same substance?
Its value is 83%.

What about the “whole brain C3aR expression” value (C3aR) of the same substance?
Its value is “significantly higher”.
